Assay results reported in the supplement of paper PMC10307832.

Experiments:
Assay in all cases: relative viability (nuclei count vs DMSO), 5 days (fraction); higher = more cells survive
KIN001-266 + Navitoclax = compound: CCN1CCC(CC1)N2C=C(N=N2)CNC3=CC4=C(C(=CN=C4C(=C3)Cl)C#N)NC5=CC(=C(C=C5)F)Cl [KIN001-266] + CC1(C)CCC(c2ccc(Cl)cc2)=C(CN2CCN(c3ccc(C(=O)NS(=O)(=O)c4ccc(N[C@H](CCN5CCOCC5)CSc5ccccc5)c(S(=O)(=O)C(F)(F)F)c4)cc3)CC2)C1 [Navitoclax] (partner 0.5 µM)
Method in brief: (§1)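 Lung cancer cell lines in 1536-well plates were dosed by pin tool the day after seeding, either with one drug alone or with a fixed anchor-drug dose plus five library-drug doses (not always all listed) in √10 steps. After 5 days, cells were fixed and their nuclei stained in one step (final 0.05% Triton X-100, 1% formaldehyde, 1 ug/ml Hoechst), then counted on 4× images. Relative viability is the nuclei count in treated wells divided by that in vehicle wells. Values are medians of duplicate plates.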

KIN001-266 + Trametinib = compound: CCN1CCC(CC1)N2C=C(N=N2)CNC3=CC4=C(C(=CN=C4C(=C3)Cl)C#N)NC5=CC(=C(C=C5)F)Cl [KIN001-266] + CC(=O)Nc1cccc(-n2c(=O)n(C3CC3)c(=O)c3c(Nc4ccc(I)cc4F)n(C)c(=O)c(C)c32)c1 [Trametinib] (partner 0.02 µM)
Method in brief: as §1

KIN001-266 + Pemetrexed = compound: CCN1CCC(CC1)N2C=C(N=N2)CNC3=CC4=C(C(=CN=C4C(=C3)Cl)C#N)NC5=CC(=C(C=C5)F)Cl [KIN001-266] + Nc1nc2[nH]cc(CCc3ccc(C(=O)N[C@@H](CCC(=O)O)C(=O)O)cc3)c2c(=O)[nH]1 [Pemetrexed] (partner 0.2 µM)
Method in brief: as §1

KIN001-266 + Phenformin = compound: CCN1CCC(CC1)N2C=C(N=N2)CNC3=CC4=C(C(=CN=C4C(=C3)Cl)C#N)NC5=CC(=C(C=C5)F)Cl [KIN001-266] + N=C(N)NC(=N)NCCc1ccccc1 [Phenformin] (partner 250 µM)
Method in brief: as §1

Row | Cell Line | relative viability (KIN001-266 + Navitoclax; first compound 0.08 µM) | relative viability (KIN001-266 + Navitoclax; first compound 0.253 µM) | relative viability (KIN001-266 + Navitoclax; first compound 0.8 µM) | relative viability (KIN001-266 + Navitoclax; first compound 2.53 µM) | relative viability (KIN001-266 + Navitoclax; first compound 8 µM) | relative viability (KIN001-266 + Trametinib; first compound 0.08 µM) | relative viability (KIN001-266 + Trametinib; first compound 0.253 µM) | relative viability (KIN001-266 + Trametinib; first compound 0.8 µM) | relative viability (KIN001-266 + Trametinib; first compound 2.53 µM) | relative viability (KIN001-266 + Trametinib; first compound 8 µM) | relative viability (KIN001-266 + Pemetrexed; first compound 0.08 µM) | relative viability (KIN001-266 + Pemetrexed; first compound 0.253 µM) | relative viability (KIN001-266 + Pemetrexed; first compound 0.8 µM) | relative viability (KIN001-266 + Pemetrexed; first compound 2.53 µM) | relative viability (KIN001-266 + Pemetrexed; first compound 8 µM) | relative viability (KIN001-266 + Phenformin; first compound 0.08 µM) | relative viability (KIN001-266 + Phenformin; first compound 0.253 µM) | relative viability (KIN001-266 + Phenformin; first compound 0.8 µM) | relative viability (KIN001-266 + Phenformin; first compound 2.53 µM) | relative viability (KIN001-266 + Phenformin; first compound 8 µM)
1 | NCI-H441 | 0.688 | 0.635 | 0.483 | 0.623 | 0.531 | 0.455 | 0.525 | 0.489 | 0.471 | 0.399 | 0.251 | 0.253 | 0.233 | 0.261 | 0.248 | 0.937 | 0.837 | 0.806 | 0.805 | 0.641
2 | NCI-H1793 | 0.516 | 0.491 | 0.401 | 0.388 | 0.429 | 0.436 | 0.452 | – | 0.39 | 0.299 | 0.895 | 0.925 | – | 0.771 | 0.621 | 0.418 | 0.324 | 0.25 | 0.352 | 0.251
3 | NCI-H23 | 0.835 | 0.876 | 0.762 | 0.962 | 0.719 | 0.435 | 0.419 | 0.484 | 0.356 | 0.377 | 0.627 | 0.634 | 0.658 | 0.643 | 0.596 | 0.826 | 0.715 | 0.772 | 0.722 | 0.73
4 | HARA | 1.17 | 1.03 | 1.14 | 1.11 | 1.03 | 0.634 | 0.868 | 0.91 | 0.858 | 0.424 | 0.289 | 0.276 | 0.256 | 0.242 | 0.206 | 0.455 | 0.483 | 0.433 | 0.457 | 0.295
5 | NCI-H1792 | 0.601 | 0.627 | 0.581 | 0.652 | 0.661 | 0.372 | 0.341 | 0.43 | 0.416 | 0.476 | 0.882 | 0.9 | 0.81 | 0.757 | 0.857 | 0.26 | 0.223 | 0.17 | 0.123 | 0.265
6 | NCI-H1703 | 0.987 | 1.08 | 1.13 | 0.875 | 0.632 | – | – | – | – | – | – | – | – | – | – | – | – | – | – | –
7 | NCI-H2342 | – | – | – | – | – | 0.922 | 0.868 | 0.848 | 1.01 | 1.22 | 0.785 | 0.738 | 0.619 | 0.705 | 0.91 | 0.638 | 0.572 | 0.537 | 0.531 | 0.642
8 | CAL-12T | 1.47 | 1.31 | 1.17 | 1.33 | 1.15 | 0.357 | 0.442 | 0.351 | 0.293 | 0.37 | 1.25 | 1.1 | 1.15 | 1.2 | 1.15 | 0.571 | 0.545 | 0.515 | 0.568 | 0.534
9 | NCI-H727 | 0.337 | 0.557 | 0.484 | 0.577 | 0.183 | 0.431 | 0.384 | 0.391 | 0.391 | 0.402 | – | – | – | – | – | 0.612 | 0.615 | 0.509 | 0.595 | 0.364
10 | NCI-H2085 | 1.15 | 1.25 | 1.08 | 1.13 | 0.906 | 0.569 | 0.457 | 0.567 | 0.558 | 0.541 | 0.896 | 0.884 | 0.738 | 0.908 | 0.798 | 0.855 | 0.741 | 0.663 | 0.669 | 0.632
11 | NCI-H1395 | 1.15 | 1.26 | 1.25 | 1.1 | 0.938 | 1.02 | 1.11 | 1.08 | 0.925 | 0.985 | 0.871 | 1.02 | 0.964 | 0.784 | 0.847 | 0.453 | 0.421 | 0.503 | 0.417 | 0.442
12 | NCI-H1648 | – | – | – | – | – | 0.564 | 0.508 | 0.552 | 0.46 | 0.61 | 0.641 | 0.791 | 0.66 | 0.626 | 0.758 | – | – | – | – | –
13 | NCI-H460 | 1.16 | 1.2 | 1.15 | 1.03 | 1.07 | 0.204 | 0.225 | 0.121 | 0.135 | 0.108 | 0.06 | 0.0695 | 0.065 | 0.0681 | 0.0901 | 0.499 | 0.506 | 0.528 | 0.475 | 0.433
14 | A549 | 1.26 | 1.17 | 1.27 | 1.3 | 1.2 | – | – | – | – | – | – | – | – | – | – | 0.22 | 0.178 | 0.131 | 0.14 | 0.14
15 | IA-LM | 0.948 | 0.619 | 0.731 | 0.935 | 0.561 | – | – | – | – | – | – | – | – | – | – | – | – | – | – | –
16 | EKVX | 1.08 | 0.822 | 0.925 | 0.975 | 0.876 | 0.336 | 0.312 | 0.303 | 0.412 | 0.344 | 0.295 | 0.432 | 0.406 | 0.391 | 0.375 | 0.234 | 0.237 | 0.2 | 0.243 | 0.225
17 | ChaGo-K-1 | 1.27 | 1.12 | – | 1.1 | 1.14 | 0.914 | 0.915 | 0.87 | 0.637 | 0.459 | 0.264 | 0.268 | 0.255 | 0.25 | 0.237 | 0.508 | 0.505 | 0.473 | 0.48 | 0.454
18 | SW 900 | – | – | – | – | – | 0.83 | 0.727 | 1.02 | 0.812 | 0.324 | 0.494 | 0.496 | 0.491 | 0.47 | 0.43 | 0.617 | 0.564 | 0.537 | 0.564 | 0.357
19 | NCI-H1755 | 1.01 | 0.985 | 0.981 | 0.992 | 0.799 | 0.727 | 0.802 | 0.775 | 0.792 | 0.684 | 0.394 | 0.459 | 0.334 | 0.407 | 0.433 | 0.643 | 0.62 | 0.625 | 0.621 | 0.549
